“And” between values parts separate entries of the source, which are not always exact repeats. Equal values may be shown once. Read-outs that look alike come from different tables or passages of the source.
Experiments:
MAO mediated effects = settings: Examples 4-9; in words
[1] = test system: reserpine induced ptosis in rats; assay: Reserpine-induced ptosis in rats; assay type: in vivo; settings: for Mean score of reserpine-induced ptosis: reserpine 5 mg/kg i.p., 0-4 scale, 4 = eyes completely open, saline 0.86
Excerpt: Reserpine-induced ptosis and its reversal test. Reserpine causes depletion of catecholamine stores, especially norepinephrine. This effect in the live animal is manifested among other things, in ptosis. Drugs that can prevent or inhibit reserpine-induced ptosis act either directly as noradrenergic agonists, or indirectly by decreasing or preventing the metabolic elimination of endogenous norepinephrine. MAO inhibitors belong to the latter category.

WKY rats = settings: for Change in HR / Change in MBAP: 45-60 min
Method: (§1) A chronic indwelling catheter was implanted in the caudal artery under light anesthesia with averteen. The animals were allowed to recover and were tested 24 hours after implantation. The cathetar was connected to a Statham pressure transducer and blood pressure was recorded on a Grass multichannel Polygraph. During this period, the rat was kept in its home cage in order to minimize handling and undue manipulations known to affect blood pressure.
(§2) Two strains of rats were used: WKY rats and matching SHR (Spontaneously Hypertensive Rats) rats. WKY rats were from a local strain, weighing about 250 g each.
(§3) Blood pressure and heart rate were then monitored for the duration of 45-60 minutes.

[2] = test system: pressor response to catecholamines in the cat; assay: Pressor response to catecholamines in the anesthetized cat before and after S(-)PAI; assay type: in vivo; settings: S(-)PAI 1 mg/kg i.v.
Method: (§4) Cats were anesthetized with i.v. nembutal 25 mg/kg. Anesthesia was maintained by additional injections of nembutal, 5 mg/kg, as needed. The femoral artery was cannulated and connected to a Statham pressure transducer for blood pressure recordings on a Grass multichannel Polygraph. The femoral vein was cannulated for i.v. injection of drugs.

anesthetized cat = settings: for Change in MABP / Change in PR: 45-60 min
Method: as §4

[3] = test system: SHR (Spontaneously Hypertensive Rats) rats; settings: for Change in HR / Change in MBAP: 45-60 min
Method: as §1, §2
SHR rats were purchased from Charles River breeders, England. The animals were allowed to acclimatize and recover from the journey and were used at the age of three months, in order to match their WKY controls. SHR hypertension develops gradually from the age of one month to the age of three months. At this stage, blood pressure is already elevated above normotensive levels.
as §3

mice after CHI = settings: in words
Method: (§5) The procedure for closed head injury followed was as described for rats in Shohami et al. (J Neurotrauma (1993) 10(2) 109-119) with changes as described.
(§6) Animals: Male Sabra mice (Hebrew University strain) weighing 34-40 g were used. They were housed in groups of 10 per cage, in a 12 hr:12 hr. light:dark cycle. Food and water were provided ad libitium.
(§7) Trauma was induced under anaesthesia. A longitudinal incision was performed in the skin covering the skull and the skin retracted to expose the skull. The head was fixed manually at the lower plane of the impact apparatus. A weight of 333 g was delivered by an electric device from a distance of 3 cm to the left hemisphere, 1-2 mm lateral to the midline in the midcoronal plane.

MAO-A/MAO-B = settings: in vitro; in words; cited from earlier work
[4] = test system: male Wistar rats after middle cerebral artery occlusion (MCA-O)
Excerpt: In order to expose the left middle cerebral artery, a cut was made in the temporal muscle. The tip of the coronoid process of mandible was excised as well and removed with a fine rongeur. Craniectomy was made with a dental drill at the junction between the median wall and the roof of the inferotemporal fossa.
The dura matter was opened carefully using a 27 gauge needle. […] Following this, the temporalis muscle was sutured and laid over the craniectomy site. The skin was closed with a running 3-0 silk suture. […] The volume of brain tissue incurring damage following ischemia was determined.

[5] = for Weight: 2 mg/kg/day oral
Method: Spontaneously hypertensive rats, three month-old, were used. […] Controls received an equivalent volume of tap water. Treatment lasted 14 days. During this period, systolic blood pressure was monitored on days 0, 4, 7 and 11, using a tail-cuff procedure. On day 14, systolic blood pressure was determined using the indwelling catheter procedure described in Example 7.
The rats used in Example 8 above, were additionally monitored for weight gain/loss as an additional marker for the rate of food consumption MAO inhibitors usually elevate central catechoiamines which may depress appetite.

[6] = test system: injured mice after closed head injury (CHI); settings: 1 mg/kg s.c. 15 min after CHI
Method: as §5, §6, §7
One point was awarded for the lack of a tested reflex or for the inability to perform the task outline in the Table. The maximal score that can be reached at 1 hour post-CHI is 25 points and at later times, 21 points. The difference in NSS at 1 hr. and at any other time reflects the spontaneous recovery, and is referred to as ΔNSS. A score of 15-19 at 1 hr denotes severe injury, 11-14 denotes moderate injury and less than 10 denotes mild injury.

## C#CCN[C@H]1CCc2ccccc21 [S(-)PAI, S-(-)-N-propargyl-1-aminoindan]
MAO mediated effects
  effect on several MAO mediated effects: minimal or no effect
[1]; 5 mg/kg i.p.
  Mean score of reserpine-induced ptosis: 1.8
[1]; 10 mg/kg i.p.
  Mean score of reserpine-induced ptosis: 2.5
[1]; 20 mg/kg i.p.
  Mean score of reserpine-induced ptosis: 1.5
[1]; in words
  endogenous norepinephrine concentrations (inferred from ptosis scores): does not cause an increase in endogenous norepinephrine concentrations
WKY rats; acute oral, in words
  blood pressure and heart rate: no effect on either parameter in either strain of rats
WKY rats; dose 5, oral
  Change in HR: 0 beats/min
  Change in MBAP: 0 mmHg
WKY rats; dose 10, oral
  Change in HR: 0 beats/min
  Change in MBAP: 0 mmHg
WKY rats; dose 20, oral
  Change in HR: 0 beats/min
[2]; challenge norepinephrine 0.02 μg/kg
  Δ mean arterial pressure after S(-)PAI: 12 mmHg
[2]; challenge norepinephrine 0.05 μg/kg
  Δ mean arterial pressure after S(-)PAI: 32 mmHg
[2]; challenge norepinephrine 0.10 μg/kg
  Δ mean arterial pressure after S(-)PAI: 23 mmHg
[2]; challenge norepinephrine 0.20 μg/kg
  Δ mean arterial pressure after S(-)PAI: 46 mmHg
[2]; challenge phenylephrine 0.20 μg/kg
  Δ mean arterial pressure after S(-)PAI: 2 mmHg
[2]; challenge phenylephrine 0.50 μg/kg
  Δ mean arterial pressure after S(-)PAI: 17 mmHg
[2]; challenge phenylephrine 1.0 μg/kg
  Δ mean arterial pressure after S(-)PAI: 17 mmHg
[2]; challenge phenylephrine 2.0 μg/kg
  Δ mean arterial pressure after S(-)PAI: 42 mmHg
[2]; challenge tyramine 2.0 μg/kg
  Δ mean arterial pressure after S(-)PAI: 3 mmHg
[2]; challenge tyramine 5.0 μg/kg
  Δ mean arterial pressure after S(-)PAI: 9 mmHg
[2]; challenge tyramine 10.0 μg/kg
  Δ mean arterial pressure after S(-)PAI: 28 mmHg
[2]; challenge tyramine 20.0 μg/kg
  Δ mean arterial pressure after S(-)PAI: 39 mmHg
[2]; phenylephrine, tyramine, norepinephrine, in words
  potentiation of the pressor response: no significant potentiation of the pressor response
Anesthetized cat; dose 0.03, i.v.
  Change in MABP: 7 mmHg and 5 mmHg
Anesthetized cat; dose 0.1, i.v.
  Change in MABP: -12 mmHg
  Change in PR: 0 beats/min
Anesthetized cat; dose 1.0, i.v.
  Change in MABP: 2 mmHg
  Change in PR: -5 beats/min
Anesthetized cat; i.v., up to cumulative dose of 1 mg/kg, 45-60 minutes, in words
  mean arterial blood pressure (MABP) and heart rate (HR): neither mean arterial blood pressure (MABP) nor heart rate (HR) were affected
[3]; acute oral, in words
  blood pressure and heart rate: no effect on either parameter in either strain of rats
[3]; dose 1, oral
  Change in HR: -30 beats/min
  Change in MBAP: -16 mmHg
[3]; dose 2, oral
  Change in HR: 0 beats/min
  Change in MBAP: -12 mmHg
[3]; dose 10, oral
  Change in HR: 0 beats/min
  Change in MBAP: 4 mmHg
Mice after CHI; FIG. 1, after CHI
  latency to find the platform, compared to saline treated controls: reduction in latency
Mice after CHI; after CHI
  memory, compared to saline-treated mice: Memory is enhanced
MAO-A/MAO-B
  preference for MAO-B or MAO-A: no preference to either substrate
[4]; in words
  neurological severity score (NSS) and infarct volume versus saline-treated rats: significantly lower
[4]; ip, 2 mg/kg
  Mean NSS ± SEM after 24 hours: 6.5 ± 0.48
[5]; day 0, tap water 317 ± 32.64
  Weight: 294.13 ± 32.06 g
[5]; day 7, tap water 302.22 ± 35.17
  Weight: 292.25 ± 28.47 g
[5]; day 14, tap water 312.89
  Weight: 307.33 ± 24.13 g
[5]; 2 mg/kg/day, 14 days, in words
  body weight: no effect on body weight
[6]; saline 4.75 ± 0.17
  Δ NSS, 24 hr post-CHI: 5.06 ± 0.25
[6]; saline 5.83 ± 0.36
  Δ NSS, 7 days post-CHI: 7.19 ± 0.28
[6]; saline 5.96 ± 0.4
  Δ NSS, 14 days post-CHI: 7.88 ± 0.36
